Assay results reported in PubChem BioAssay AID200 (DTP/NCI, 2004).
Where “and” joins values, the source holds several entries; their conditions need not be identical. Identical values can stand only once. Inconclusive results and toxic doses are left out. Rule for the calls: active = survival T/C of 150% or more; inactive = T/C below 125% in these data.

Test system: B6C3F1 mice, B16 melanoma ip, median survival T/C
Assay: NCI In Vivo Anticancer Drug Screen. Data for tumor model B16 Melanoma (intraperitoneal) in B6C3F1 mice
Conditions: endpoint: median survival time, higher = longer survival
Procedure, shortened: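 Mice bearing transplanted tumor were dosed with compound or vehicle, and survival was recorded. Activity is expressed as the treated-group measurement (T) divided by the vehicle control measurement (C).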

[1] = dose: 12.5 mg/kg/injection, schedule: Q01DX009 (ip), vehicle: saline with Tween-80

Measured: T/C

CN(C)N=Nc1ccc(C(N)=O)cc1
114 % of control and 288 % of control: dose: 20.83 mg/kg/injection, schedule: Q01DX009 (ip), vehicle: saline with Tween-80
inactive: dose: 4.5 mg/kg/injection, schedule: Q01DX009 (ip), vehicle: saline with Tween-80 110 % of control | dose: 7.5 mg/kg/injection, schedule: Q01DX009 (ip), vehicle: saline with Tween-80 114 % of control | dose: 8.0 mg/kg/injection, schedule: Q01DX009 (ip), vehicle: saline with Tween-80 107 % of control | [1] 119 % of control and 120 % of control | dose: 13.0 mg/kg/injection, schedule: Q01DX009 (ip), vehicle: saline with Tween-80 101 % of control | dose: 21.0 mg/kg/injection, schedule: Q01DX009 (ip), vehicle: saline with Tween-80 118 % of control | dose: 34.72 mg/kg/injection, schedule: Q01DX009 (ip), vehicle: saline with Tween-80 110 % of control and 115 % of control | dose: 35.0 mg/kg/injection, schedule: Q01DX009 (ip), vehicle: saline with Tween-80 111 % of control | dose: 57.86 mg/kg/injection, schedule: Q01DX009 (ip), vehicle: saline with Tween-80 124 % of control | dose: 58.0 mg/kg/injection, schedule: Q01DX009 (ip), vehicle: saline with Tween-80 118 % of control | dose: 96.0 mg/kg/injection, schedule: Q01DX009 (ip), vehicle: saline with Tween-80 117 % of control

O=C(Nc1ccccc1)c1c(O)[nH]c(=S)[nH]c1=O
active: dose: 44.0 mg/kg/injection, schedule: Q01DX009 (ip), vehicle: saline with Tween-80 153 % of control | dose: 67.0 mg/kg/injection, schedule: Q01DX009 (ip), vehicle: saline with Tween-80 161 % of control
inactive: dose: 6.0 mg/kg/injection, schedule: Q01DX009 (ip), vehicle: saline with Tween-80 108 % of control | [1] 114 % of control and 115 % of control | dose: 56.0 mg/kg/injection, schedule: Q01DX009 (oral), vehicle: saline with Tween-80 111 % of control | dose: 83.0 mg/kg/injection, schedule: Q01DX009 (oral), vehicle: saline with Tween-80 117 % of control | dose: 100.0 mg/kg/injection, schedule: Q01DX005 (oral), vehicle: saline with Tween-80 110 % of control | dose: 124.0 mg/kg/injection, schedule: Q01DX009 (oral), vehicle: saline with Tween-80 114 % of control | dose: 149.0 mg/kg/injection, schedule: Q01DX005 (oral), vehicle: saline with Tween-80 118 % of control | dose: 185.0 mg/kg/injection, schedule: Q01DX009 (oral), vehicle: saline with Tween-80 121 % of control | dose: 223.0 mg/kg/injection, schedule: Q01DX005 (oral), vehicle: saline with Tween-80 114 % of control | dose: 333.0 mg/kg/injection, schedule: Q01DX005 (oral), vehicle: saline with Tween-80 116 % of control

N#CCCCCCCCCCCC(=O)O
inactive: dose: 100.0 mg/kg/injection, schedule: Q01DX009 (ip), vehicle: saline with Tween-80 93 % of control | dose: 200.0 mg/kg/injection, schedule: Q01DX009 (ip), vehicle: saline with Tween-80 96 % of control | dose: 400.0 mg/kg/injection, schedule: Q01DX009 (ip), vehicle: saline with Tween-80 99 % of control

Cc1c(-c2ccc(C3CCCCC3)cc2)nc2ccc(F)cc2c1C(=O)O
active: dose: 100.0 mg/kg/injection, schedule: Q01DX009 (ip), vehicle: Klucel (hydroxypropylcellulose) (HPC) 155 % of control | dose: 200.0 mg/kg/injection, schedule: Q01DX009 (ip), vehicle: Klucel (hydroxypropylcellulose) (HPC) 150 % of control | dose: 400.0 mg/kg/injection, schedule: Q01DX009 (ip), vehicle: Klucel (hydroxypropylcellulose) (HPC) 160 % of control and 179 % of control
inactive: dose: 25.0 mg/kg/injection, schedule: Q01DX009 (ip), vehicle: Klucel (hydroxypropylcellulose) (HPC) 121 % of control

CN1CCN(CCCN2c3ccccc3Sc3ccc(C(F)(F)F)cc32)CC1
inactive: dose: 3.12 mg/kg/injection, schedule: Q01DX009 (ip), vehicle: saline 100 % of control | dose: 6.25 mg/kg/injection, schedule: Q01DX009 (ip), vehicle: saline 106 % of control | dose: 8.0 mg/kg/injection, schedule: Q01DX009 (ip), vehicle: saline 107 % of control | dose: 12.5 mg/kg/injection, schedule: Q01DX009 (ip), vehicle: saline 98 % of control | dose: 16.0 mg/kg/injection, schedule: Q01DX009 (ip), vehicle: saline 93 % of control | dose: 32.0 mg/kg/injection, schedule: Q01DX009 (ip), vehicle: saline 87 % of control

c1cc2c(c(CC3CO3)c1CC1CO1)OCCOCCOCCOCCO2 (stereo unspecified)
inactive: dose: 6.25 mg/kg/injection, schedule: Q01DX009 (ip), vehicle: saline + alcohol 102 % of control | dose: 12.5 mg/kg/injection, schedule: Q01DX009 (ip), vehicle: saline + alcohol 112 % of control | dose: 25.0 mg/kg/injection, schedule: Q01DX009 (ip), vehicle: saline + Tween-80 + alcohol 113 % of control | dose: 25.0 mg/kg/injection, schedule: Q01DX009 (ip), vehicle: saline + alcohol 112 % of control | dose: 50.0 mg/kg/injection, schedule: Q01DX009 (ip), vehicle: saline + Tween-80 + alcohol 113 % of control | dose: 50.0 mg/kg/injection, schedule: Q01DX009 (ip), vehicle: saline + alcohol 119 % of control and 108 % of control | dose: 100.0 mg/kg/injection, schedule: Q01DX009 (ip), vehicle: saline + Tween-80 + alcohol 122 % of control | dose: 100.0 mg/kg/injection, schedule: Q01DX009 (ip), vehicle: saline + alcohol 113 % of control and 123 % of control | dose: 200.0 mg/kg/injection, schedule: Q01DX009 (ip), vehicle: saline + alcohol 109 % of control
